Measurements published in patent publication EP2951180B1, “2,6,7,8 SUBSTITUTED PURINES AS HDM2 INHIBITORS” (Merck Sharp & Dohme Corp., priority 2013, dated 2014).

biological target: T1, HDM2 (Homo sapiens, UniProt Q00987); test: HDM2 FRET assay (inhibition of binding of FITC labeled p53-pocket peptide to HDM2); conditions: Table 11; read-out: FRET IC50
T1 construct: Thioredoxin (N); made in house; host or cells: E. coli strain BL21(DE3)Rosetta
Method in brief: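 TR-FRET with 0.5 nM His-tagged recombinant HDM2, 3 nM FITC-labelled p53 peptide and 0.25 nM Tb-anti-His antibody in PBS, 0.01% BSA, 0.01% Tween-20, 0.1% DMSO. IC50 from em520/em495 ratio over 10-point dilutions, 4-parameter logistic fit.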

T1 sequence (Q00987 17-125): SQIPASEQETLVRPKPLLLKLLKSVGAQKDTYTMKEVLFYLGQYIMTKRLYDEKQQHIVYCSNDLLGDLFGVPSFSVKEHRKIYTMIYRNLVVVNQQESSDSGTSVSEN

Compound | IC50
C[C@@H](Nc1nc(-c2noc(=O)[nH]2)nc2nc(N3CCOC[C@@H]3c3ccccc3)n(C[C@H]3CC[C@H](C)CC3)c12)C1CCC1 [Example 11.67, 3-(6-{[(1R)-1-cyclobutylethyl]amino}-7-[(trans-4-methylcyclohexyl)methyl]-8-[(3S)-3-phenylmorpholin-4-yl]-7H-purin-2-yl)-1,2,4-oxadiazol-5(4H)-one] | 10.8 nM
C[C@@H](Nc1nc(-c2noc(=O)[nH]2)nc2nc(N(C)Cc3ccncn3)n(C[C@H]3CC[C@H](C)CC3)c12)C1CCC1 [Example 11.70, 3-(6-{[(1R)-1-cyclobutylethyl]amino}-7-[(trans-4-methylcyclohexyl)methyl]-8-[methyl(pyrimidin-4-ylmethyl)amino]-7H-purin-2-yl)-1,2,4-oxadiazol-5(2H)-one] | 22.8 nM
C[C@@H](Nc1nc(-c2noc(=O)[nH]2)nc2nc(N(C)Cc3cnn(C)c3)n(C[C@H]3CC[C@H](C)CC3)c12)C1CCC1 [Example 11.71, 3-(6-{[(1R)-1-cyclobutylethyl]amino}-7-[(trans-4-methylcyclohexyl)methyl]-8-{methyl[(1-methyl-1H-pyrazol-4-yl)methyl]amino}-7H-purin-2-yl)-1,2,4-oxadiazol-5(2H)-one] | 24.3 nM
C[C@@H](Nc1nc(-c2noc(=O)[nH]2)nc2nc(N(C)Cc3cnccn3)n(C[C@H]3CC[C@H](C)CC3)c12)C1CCC1 [Example 11.72, 3-(6-{[(1R)-1-cyclobutylethyl]amino}-7-[(trans-4-methylcyclohexyl)methyl]-8-[methyl(pyrazin-2-ylmethyl)amino]-7H-purin-2-yl)-1,2,4-oxadiazol-5(2H)-one] | 5.98 nM
C[C@@H](Nc1nc(-c2noc(=O)[nH]2)nc2nc(N(C)Cc3cncs3)n(C[C@H]3CC[C@H](C)CC3)c12)C1CCC1 [Example 11.73, 3-(6-{[(1R)-1-cyclobutylethyl]amino}-7-[(trans-4-methylcyclohexyl)methyl]-8-[methyl(1,3-thiazol-5-ylmethyl)amino]-7H-purin-2-yl)-1,2,4-oxadiazol-5(2H)-one] | 11.5 nM
C[C@@H](Nc1nc(-c2noc(=O)[nH]2)nc2nc(N(C)Cc3cscn3)n(C[C@H]3CC[C@H](C)CC3)c12)C1CCC1 [Example 11.74, 3-(6-{[(1R)-1-cyclobutylethyl]amino}-7-[(trans-4-methylcyclohexyl)methyl]-8-[methyl(1,3-thiazol-4-ylmethyl)amino]-7H-purin-2-yl)-1,2,4-oxadiazol-5(2H)-one] | 133 nM
C[C@@H](Nc1nc(-c2noc(=O)[nH]2)nc2nc(N(C)Cc3noc(C4CC4)n3)n(C[C@H]3CC[C@H](C)CC3)c12)C1CCC1 [Example 11.75, 3-(6-{[(1R)-1-cyclobutylethyl]amino}-8-{[(5-cyclopropyl-1,2,4-oxadiazol-3-yl)methyl](methyl)amino}-7-[(trans-4-methylcyclohexyl)methyl]-7H-purin-2-yl)-1,2,4-oxadiazol-5(2H)-one] | 9.58 nM
Cc1csc(CN(C)c2nc3nc(-c4noc(=O)[nH]4)nc(N[C@H](C)C4CCC4)c3n2C[C@H]2CC[C@H](C)CC2)n1 [Example 11.76, 3-(6-{[(1R)-1-cyclobutylethyl]amino}-7-[(trans-4-methylcyclohexyl)methyl]-8-{methyl[(4-methyl-1,3-thiazol-2-yl)methyl]amino}-7H-purin-2-yl)-1,2,4-oxadiazol-5(2H)-one] | 8.19 nM
Cc1ccc(C2CCCCN2c2nc3nc(-c4noc(=O)[nH]4)nc(N[C@H](C)C4CCC4)c3n2C[C@H]2CC[C@H](C)CC2)o1 (stereo partly drawn) [Example 11.78, 3-(6-{[(1R)-1-cyclobutylethyl]amino}-7-[(trans-4-methylcyclohexyl)methyl]-8-[2-(5-methylfuran-2-yl)piperidin-1-yl]-7H-purin-2-yl)-1,2,4-oxadiazol-5(4H)-one] | 37.1 nM
C[C@@H](Nc1nc(-c2noc(=O)[nH]2)nc2nc(N3CCS(=O)(=O)CC3)n(C[C@H]3CC[C@H](C)CC3)c12)C1CCC1 [Example 11.79, 3-(6-{[(1R)-1-cyclobutylethyl]amino}-8-(1,1-dioxidothiomorpholin-4-yl)-7-[(trans-4-methylcyclohexyl)methyl]-7H-purin-2-yl)-1,2,4-oxadiazol-5(2H)-one] | 33.3 nM
C[C@@H](Nc1nc(-c2noc(=O)[nH]2)nc2nc(N3CCC(F)(F)CC3)n(C[C@H]3CC[C@H](C)CC3)c12)C1CCC1 [Example 11.80, 3-(6-{[(1R)-1-cyclobutylethyl]amino}-8-(4,4-difluoropiperidin-1-yl)-7-[(trans-4-methylcyclohexyl)methyl]-7H-purin-2-yl)-1,2,4-oxadiazol-5(2H)-one] | 25.9 nM
C[C@H]1CC[C@H](Cn2c(N3CCOC[C@H]3c3ccccc3)nc3nc(-c4noc(=O)[nH]4)nc(N4CCCCC4C4CCC4)c32)CC1 (stereo partly drawn) [Example 11.81, 3-{6-(2-cyclobutylpiperidin-1-yl)-7-[(trans-4-methylcyclohexyl)methyl]-8-[(3R)-3-phenylmorpholin-4-yl]-7H -purin-2-yl}-1,2,4-oxadiazol-5(4H)-one] | 483 nM
C[C@H]1CC[C@H](Cn2c(N3CCOC[C@H]3c3ccccc3)nc3nc(-c4noc(=O)[nH]4)nc(N4CCCCC4C4CCC4)c32)CC1 (stereo partly drawn) [Example 11.82, 3-{6-(2-cyclobutylpiperidin-1-yl)-7-[(trans-4-methylcyclohexyl)methyl]-8-[(3R)-3-phenylmorpholin-4-yl]-7H -purin-2-yl}-1,2,4-oxadiazol-5(4H)-one] | 6.45 nM
CC(C)C[C@H]1CCCCN1c1nc2nc(-c3noc(=O)[nH]3)nc(N[C@H](C)C3CCC3)c2n1C[C@H]1CC[C@H](C)CC1 [Example 11.83, 3-(6-{[(1R)-1-cyclobutylethyl]amino}-7-[(trans-4-methylcyclohexyl)methyl]-8-[(2R)-2-(2-methylpropyl)piperidin-1-yl]-7H-purin-2-yl)-1,2,4-oxadiazol-5(4H)-one] | 11.5 nM
CC(C)C[C@@H]1CCCCN1c1nc2nc(-c3noc(=O)[nH]3)nc(N[C@H](C)C3CCC3)c2n1C[C@H]1CC[C@H](C)CC1 [Example 11.84, 3-(6-{[(1R)-1-cyclobutylethyl]amino}-7-[(trans-4-methylcyclohexyl)methyl]-8-[(2S)-2-(2-methylpropyl)piperidin-1-yl]-7H-purin-2-yl)-1,2,4-oxadiazol-5(4H)-one] | 3.07 nM
CC(Nc1nc2nc(-c3noc(=O)[nH]3)nc(N[C@H](C)C3CCC3)c2n1C[C@H]1CC[C@H](C)CC1)c1cncnc1 (stereo partly drawn) [Example 11.85, 3-(6-{[(1R)-1-cyclobutylethyl]amino}-7-[(trans-4-methylcyclohexyl)methyl]-8-[(1-pyrimidin-5-ylethyl)amino]-7H-purin-2-yl)-1,2,4-oxadiazol-5(2H)-one] | 4.97 nM
Cc1nc(C(C)Nc2nc3nc(-c4noc(=O)[nH]4)nc(N[C@H](C)C4CCC4)c3n2C[C@H]2CC[C@H](C)CC2)cs1 (stereo partly drawn) [Example 11.86, 3-(6-{[(1R)-1-cyclobutylethyl]amino}-7-[(trans-4-methylcyclohexyl)methyl]-8-{[1-(2-methyl-1,3-thiazol-4-yl)ethyl]amino} -7H-purin-2-yl)-1,2,4-oxadiazol-5(2H)-one] | 3.39 nM
CC(Nc1nc2nc(-c3noc(=O)[nH]3)nc(N[C@H](C)C3CCC3)c2n1C[C@H]1CC[C@H](C)CC1)c1ccno1 (stereo partly drawn) [Example 11.87, 3-(6-{[(1R)-1-cyclobutylethyl]amino}-8-[(1-isoxazol-5-ylethyl)amino]-7-[(trans-4-methylcyclohexyl)methyl]-7H-purin-2-yl)-1,2,4-oxadiazol-5(2H)-one] | 105 nM
CC(Nc1nc2nc(-c3noc(=O)[nH]3)nc(N[C@H](C)C3CCC3)c2n1C[C@H]1CC[C@H](C)CC1)c1cscn1 (stereo partly drawn) [Example 11.88, 3-(6-{[(1R)-1-cyclobutylethyl]amino}-7-[(trans-4-methylcyclohexyl)methyl]-8-{[1-(1,3-thiazol-4-yl)ethyl]amino}-7H-purin-2-yl)-1,2,4-oxadiazol-5(2H)-one] | 3.83 nM
CC(Nc1nc2nc(-c3noc(=O)[nH]3)nc(N[C@H](C)C3CCC3)c2n1C[C@H]1CC[C@H](C)CC1)c1ccncn1 (stereo partly drawn) [Example 11.89, 3-(6-{[(1R)-1-cyclobutylethyl]amino}-7-[(trans-4-methylcyclohexyl)methyl]-8-[(1-pyrimidin-4-ylethyl)amino]-7H-purin-2-yl)-1,2,4-oxadiazol-5(2H)-one] | 13.8 nM
Cc1noc(C(C)Nc2nc3nc(-c4noc(=O)[nH]4)nc(N[C@H](C)C4CCC4)c3n2C[C@H]2CC[C@H](C)CC2)n1 (stereo partly drawn) [Example 11.90, 3-(6-{[(1R)-1-cyclobutylethyl]amino}-7-[(trans-4-methylcyclohexyl)methyl]-8-{[1-(3-methyl-1,2,4-oxadiazol-5-yl)ethyl]amino} -7H-purin-2-yl)-1,2,4-oxadiazol-5(2H)-one] | 4.04 nM
CC(Nc1nc2nc(-c3noc(=O)[nH]3)nc(N[C@H](C)C3CCC3)c2n1C[C@H]1CC[C@H](C)CC1)c1cncnc1 (stereo partly drawn) [Example 11.92, 3-(6-{[(1R)-1-cyclobutylethyl]amino}-7-[(trans-4-methylcyclohexyl)methyl]-8-[(1-pyrimidin-5-ylethyl)amino]-7H-purin-2-yl)-1,2,4-oxadiazol-5(2H)-one] | 11.7 nM
C[C@@H]1COCCN1c1nc2nc(-c3n[nH]c(=O)o3)nc(N[C@H](C)C3CCC3)c2n1C[C@H]1CC[C@H](C)CC1 [Example 11.97, 5-(6-{[(1R)-1-cyclobutylethyl]amino}-7-[(trans-4-methylcyclohexyl)methyl]-8-[(3R)-3-methylmorpholin-4-yl]-7H-purin-2-yl)-1,3,4-oxadiazol-2(3H)-one] | 1.94 nM
C[C@@H](Nc1nc(-c2noc(=O)[nH]2)nc2nc(N3CCOCC3(C)C)n(C[C@H]3CC[C@H](C)CC3)c12)C1CCC1 [Example 11.98, 3-(6-{[(1R)-1-cyclobutylethyl]amino}-8-(3,3-dimethylmorpholin-4-yl)-7-[(trans-4-methylcyclohexyl)methyl]-7H-purin-2-yl)-1,2,4-oxadiazol-5(4H)-one] | 2.52 nM
